Eight compounds from patent publication US9796733B2, “Imidazo-pyrazine derivatives useful as soluble guanylate cyclase activators” (Merck Sharp & Dohme Corp., priority 2014, dated 2017) can be followed below.

One assay addresses T1, sGC α1/β1 heterodimer (Homo sapiens, UniProt Q02108+Q02153).
T1 construct: expressed in transfected cells; host or cells: CHO-K1 (clone #7, CHO-K1/sGC)
T1 sequence (Q02108 1-690): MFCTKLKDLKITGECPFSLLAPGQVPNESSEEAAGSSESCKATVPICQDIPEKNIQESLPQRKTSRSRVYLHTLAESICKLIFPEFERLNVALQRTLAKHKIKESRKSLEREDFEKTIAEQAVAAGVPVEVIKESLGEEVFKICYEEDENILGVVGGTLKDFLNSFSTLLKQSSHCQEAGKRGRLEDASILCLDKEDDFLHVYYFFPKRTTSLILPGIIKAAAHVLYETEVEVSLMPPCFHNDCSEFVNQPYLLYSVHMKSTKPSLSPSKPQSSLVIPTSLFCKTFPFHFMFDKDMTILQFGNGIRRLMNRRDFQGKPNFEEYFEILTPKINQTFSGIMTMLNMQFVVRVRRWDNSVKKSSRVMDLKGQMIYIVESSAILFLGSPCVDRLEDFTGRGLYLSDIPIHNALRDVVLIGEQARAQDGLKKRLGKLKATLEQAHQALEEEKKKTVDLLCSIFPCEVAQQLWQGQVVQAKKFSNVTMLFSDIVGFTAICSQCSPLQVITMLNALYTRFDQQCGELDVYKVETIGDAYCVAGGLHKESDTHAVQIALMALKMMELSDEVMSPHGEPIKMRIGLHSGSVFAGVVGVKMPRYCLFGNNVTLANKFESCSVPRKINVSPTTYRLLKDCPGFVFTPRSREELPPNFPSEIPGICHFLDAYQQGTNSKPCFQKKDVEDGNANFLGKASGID
T1 sequence (Q02153 1-619): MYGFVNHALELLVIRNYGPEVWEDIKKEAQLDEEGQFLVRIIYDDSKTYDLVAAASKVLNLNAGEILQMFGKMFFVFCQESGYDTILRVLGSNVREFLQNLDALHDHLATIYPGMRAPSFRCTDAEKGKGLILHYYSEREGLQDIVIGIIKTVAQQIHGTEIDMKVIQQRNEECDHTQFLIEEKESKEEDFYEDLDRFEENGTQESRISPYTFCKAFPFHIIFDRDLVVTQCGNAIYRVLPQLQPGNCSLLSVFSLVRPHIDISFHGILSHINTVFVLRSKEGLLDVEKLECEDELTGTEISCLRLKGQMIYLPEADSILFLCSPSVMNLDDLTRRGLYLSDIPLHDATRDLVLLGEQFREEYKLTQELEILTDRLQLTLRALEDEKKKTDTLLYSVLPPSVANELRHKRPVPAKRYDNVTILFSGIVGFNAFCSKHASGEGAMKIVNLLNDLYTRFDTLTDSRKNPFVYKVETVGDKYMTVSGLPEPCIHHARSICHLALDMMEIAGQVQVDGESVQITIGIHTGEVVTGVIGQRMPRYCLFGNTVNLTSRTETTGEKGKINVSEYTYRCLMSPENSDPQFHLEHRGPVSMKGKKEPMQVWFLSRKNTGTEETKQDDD
Briefly: Cell-based sGC functional assay (CASA assay): cGMP generation in CHO-K1/sGC cells, HTRF detection. As to conditions: for Emax: CHO-K1, percent activation relative to standard Compound A in CHO-K1/sGC cells, read-out: % Act.; for EC50: inflection point (IP) of cGMP generation in CHO-K1/sGC cells, 4P fit, activity expressed as percentage of Compound A. The method in brief:
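cGMP was quantified by HTRF after 1 hr, 37° C exposure of thawed CHO-K1 cells expressing sGC α1/β1 to compound, with or without 1 μM DETA-NO. IBMX (0.5 mM) blocked cGMP breakdown, and DMSO was 2.5% final. Percent of standard Compound A's maximal cGMP was fitted (4P) for inflection point.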

Assay [1] relates to Spontaneously hypertensive rats (SHR). Briefly: Acute efficacy in spontaneously hypertensive rats (SHR): telemetry blood pressure lowering after a single oral dose. The assay is classed as in vivo, rat. The method in brief:
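Values are the maximum peak fall in systolic pressure after one oral dose (mpk), computed hourly against baseline from a vehicle dose given the day before. Rats were conscious, male, spontaneously hypertensive, with femoral-aortic telemetry recording 30 s every 10 min, 14 days post-surgery.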

With `Nc1nc(-c2cn3ccnc3c(CCC(F)(F)C(F)(F)F)n2)nc2c1C(c1ncc(Cl)cn1)(C1CC1)C(=O)N2` (stereo not drawn) [Example 349A, 4-amino-5-(5-chloropyrimidin-2-yl)-5-cyclopropyl-2-(8-(3,3,4,4,4-pentafluorobutyl)imidazo[1,2-a]pyrazin-6-yl)-5H-pyrrolo[2,3-d]pyrimidin-6(7H)-one], at sGC α1/β1 heterodimer, the Emax stood at 107% and it took 213 nM to reach a half-maximal effect (EC50). Further, in assay [1] (P.O. 2.0 mpk), the “Maximum peak decrease of systolic blood pressure (SBP) in SHR, Cat.” value (“Maximum peak decrease” below) is on record as “B (Category B=SBP in SHRs 20-40 mmHg)”.

For `Nc1nc(-c2cn3ccnc3c(CCC(F)(F)C(F)(F)F)n2)nc2c1C(c1cncc(F)c1)(C1CC1)C(=O)N2` (stereo not drawn) [Example 353B, 4-amino-5-cyclopropyl-5-(5-fluoropyridin-3-yl)-2-(8-(3,3,4,4,4-pentafluorobutyl)imidazo[1,2-a]pyrazin-6-yl)-5H-pyrrolo[2,3-d]pyrimidin-6(7H)-one], at sGC α1/β1 heterodimer, the Emax amounted to 168% and the EC50 worked out at 1030 nM. The “Maximum peak decrease” value in assay [1] (P.O. 3.0 mpk) is reported as “A (Category A=SBP in SHRs<20 mmHg)”.

As to `Nc1nc(-c2cn3ccnc3c(CCCC(F)(F)F)n2)nc2c1C(c1cncc(F)c1)(C1CC1)C(=O)N2` (stereo not drawn) [Example 356B, 4-amino-5-cyclopropyl-5-(5-fluoropyridin-3-yl)-2-(8-(4,4,4-trifluorobutyl)imidazo[1,2-a]pyrazin-6-yl)-5H-pyrrolo[2,3-d]pyrimidin-6(7H)-one], on sGC α1/β1 heterodimer, the Emax is 108% and the EC50 was found to be 487 nM. The “Maximum peak decrease” value in assay [1] (P.O. 3.0 mpk) is “A (Category A=SBP in SHRs<20 mmHg)”.

Consider `CCCc1nc(-c2nc(N)c3c(n2)NC(=O)C3(c2ccc(Cl)cc2F)C2CC2)cn2ccnc12` (stereo not drawn) [Example 360A, 4-amino-5-(4-chloro-2-fluorophenyl)-5-cyclopropyl-2-(8-propylimidazo[1,2-a]pyrazin-6-yl)-5H-pyrrolo[2,3-d]pyrimidin-6(7H)-one], for which, on sGC α1/β1 heterodimer, the Emax came to 129% and a half-maximal response (EC50) required 43 nM. Also, the “Maximum peak decrease” value in assay [1] (P.O. 3.0 mpk) is recorded as “B (Category B=SBP in SHRs 20-40 mmHg)”.

Take `CCCCc1nc(-c2nc(N)c3c(n2)NC(=O)C3(c2ccc(Cl)cc2F)C2CC2)cn2ccnc12` (stereo not drawn) [Example 369A, 4-amino-2-(8-butylimidazo[1,2-a]pyrazin-6-yl)-5-(4-chloro-2-fluorophenyl)-5-cyclopropyl-5H-pyrrolo[2,3-d]pyrimidin-6(7H)-one]: on sGC α1/β1 heterodimer, the Emax was found to be 109% and the EC50 was 13 nM. Moreover, the “Maximum peak decrease” value in assay [1] (P.O. 0.3 mpk) is given as “B (Category B=SBP in SHRs 20-40 mmHg)”.

For `CCCCc1nc(-c2nc(N)c3c(n2)NC(=O)C3(c2ncc(Cl)cn2)C2CC2)cn2ccnc12` (stereo not drawn) [Example 372A, 4-amino-2-(8-butylimidazo[1,2-a]pyrazin-6-yl)-5-(5-chloropyrimidin-2-yl)-5-cyclopropyl-5H-pyrrolo[2,3-d]pyrimidin-6(7H)-one], on sGC α1/β1 heterodimer, the Emax worked out at 187% and the 50% effective concentration (EC50) was 239 nM. The “Maximum peak decrease” value in assay [1] (P.O. 1.0 mpk) was “C (Category C=SBP in SHRs>40 mmHg)”.

In the case of `Nc1nc(-c2cn3ccnc3c(CCCC(F)(F)F)n2)nc2c1C(c1ncc(Cl)cn1)(C1CC1)C(=O)N2` (stereo not drawn) [Example 373A, 4-amino-5-(5-chloropyrimidin-2-yl)-5-cyclopropyl-2-(8-(4,4,4-trifluorobutyl)imidazo[1,2-a]pyrazin-6-yl)-5H-pyrrolo[2,3-d]pyrimidin-6(7H)-one], on sGC α1/β1 heterodimer, the Emax turned out to be 114% and it took 26 nM to reach a half-maximal effect (EC50). Besides, the “Maximum peak decrease” value in assay [1] (P.O. 0.3 mpk) is “A (Category A=SBP in SHRs<20 mmHg)”.

Turning to `Nc1nc(-c2cn3ccnc3c(CCCC(F)(F)F)n2)nc2c1C(c1ccccn1)(C1CC1)C(=O)N2` (stereo not drawn) [Example 383B, 4-Amino-5-cyclopropyl-5-(pyridin-2-yl)-2-(8-(4,4,4-trifluorobutyl)imidazo[1,2-a]pyrazin-6-yl)-5H-pyrrolo[2,3-d]pyrimidin-6(7H)-one], on sGC α1/β1 heterodimer, the Emax came to 137% and the EC50 is 98 nM. For the same compound, the “Maximum peak decrease” value in assay [1] (P.O. 1.0 mpk) is “B (Category B=SBP in SHRs 20-40 mmHg)”.
